The target of the experiment is T1, human Kv7.2+3 (Homo sapiens, UniProt O43525+O43526).
T1 construct: expressed in transfected cells; host or cells: HEK293
The experiment can be described thus: FLIPR-based thallium influx characterization of Kv7.2+3 modulators. The class given is cell-based. To be noted: for EC50: HEK293 cells over-expressing human Kv7.2+3, Tl+ influx, BTC-AM, FLIPR, 50% of channel activity compared to retigabine control responses; for Emax: maximal response relative to the reference (retigabine) response, HEK293 human Kv7.2+3, Tl+ influx FLIPR, read-out: Efficacy. The protocol: This experiment determines the ability of a test compound to modulate the activity of Kv7.2+3 channels heterologously expressed in human HEK293 cells. The ability is determined relative to retigabine. The activity is determined using a standard thallium (I) sensitive assay, e.g. using a fluorometric method in a Fluorescent Image Plate Reader (FLIPR) as described below in more detail.
Full concentration/response curves are generated and EC50 values are calculated based on max values. EC50 values (Effective Concentration) represent the concentration of the test substance, at which 50% of the channel activity is obtained when compared to retigabine control responses. Maximal response determined relative to the reference (retigabine) response is calculated.
Human HEK293 cells over-expressing human Kv7.2+3 are grown in culture medium (DMEM supplemented with 10% foetal bovine serum), in polystyrene culture flasks ([…]) in a humidified atmosphere of 5% CO2 in air, at 37° C. Cell confluence should be 80-90% on day of plating. Cells are rinsed with 4 ml of PBS (phosphate buffered saline) and incubated 2 min with 1 ml of Trypsin-EDTA. After addition of 25 ml of culture medium cells are re-suspended by trituration with a 25 ml pipette.
The cells are seeded at a density of ˜3×10^6 cells/ml (25 μl/well) in black-walled, clear bottom, 384-well plates pre-treated with 0.01 g/l poly-D-lysin (20 μl/well for ≧30 min). Plated cells were allowed to proliferate for 24 h before loading with dye.
BTC-AM ([…], Invitrogen) is added 25.5 μl DMSO. The BTC-AM stock solution (2 mM) is diluted to a final concentration of 2 μM in Cl^− free assay buffer (in mM: 140 Natgluconate, 2.5 K^+-gluconate, 6 Ca2^+-gluconate, 1 Mg^2+ gluconate, 5 glucose, 10 HEPES, pH 7.3) containing 2 μM ouabain, 2 mM amaranth and 1 mM tartrazine.
The culture medium is aspirated from the wells, the cells are washed thrice in Cl^− free assay buffer, and 25 μl of the BTC-AM loading solution is added to each well. The cells are incubated at 37° C. for 60 min.
After the loading period, the Tl^+-sensitive BTC fluorescence signal is measured over time using a FLIPR.
• Temperature: Room temp. • First addition: 12 μl test or control compound after 15 sec at a rate of 30 μl/sec and starting height of 20 μl • Second addition: 12 μl stimulus buffer (Cl^− free assay buffer supplemented with 1 mM Tl2SO4, 5 mM K2SO4 as well as the quenchers amaranth (2 mM) and tartrazine (1 mM)) is added after an additional 3 minutes at a rate of 30 μl/sec and starting height of 30 μl • Reading intervals: First sequence—3 sec×5, 2 sec×24 and 5 sec×25 • Second sequence—1 sec×5, 2 sec×24 and 5 sec×36
Addition plates (compound plate and stimulus plate) are placed in positions 2 and 3, respectively. Cell plates are placed in position 1 and run using the “KCNQ (two additions)” program. FLIPR will then take the appropriate measurements in accordance with the interval settings above. Fluorescence obtained after stimulation is corrected for the mean basal fluorescence (in Cl^− free assay buffer).
Full concentration/response curves are generated and EC50 values (“Effective Concentration”; the concentration at which 50% of the channel activity is obtained when compared to retigabine control responses) are calculated based on peak values. Maximal response determined relative to the reference (retigabine) response is calculated.

Usually EC50 stands for the concentration needed to bring the measured effect to its halfway point. High values mean lower potency in that assay, low ones higher potency in that assay.

SMILES strings stand for the structures.

Regarding `CN(C)c1nc2cc(F)ccc2c(=O)n1NC(=O)[C@@H]1C[C@@H]1c1ccc(Cl)cc1` (relative stereo) [Compound 2.1, cis-2-(4-Chloro-phenyl)-cyclopropanecarboxylic acid (2-dimethylamino-7-fluoro-4-oxo-4H-quinazolin-3-yl)-amide], it took 1400 nM to reach a half-maximal effect (EC50) and the Emax was found to be 118%.

With `CC(C)N(C)c1nc2cc(F)cc(F)c2c(=O)n1NC(=O)[C@@H]1C[C@@H]1c1ccc(Cl)cc1` (relative stereo) [Compound 2.2, cis-2-(4-Chloro-phenyl)-cyclopropanecarboxylic acid [5,7-difluoro-2-(isopropyl-methyl-amino)-4-oxo-4H-quinazolin-3-yl]-amide], the EC50 was 450 nM and the Emax worked out at 116%.

As to `O=C(Nn1c(N2CCCC2)nc2cc(F)cc(F)c2c1=O)[C@@H]1C[C@@H]1c1ccc(Cl)cc1` (relative stereo) [Compound 2.3, cis-2-(4-Chloro-phenyl)-cyclopropanecarboxylic acid (5,7-difluoro-4-oxo-2-pyrro-lidin-1-yl-4H-quinazolin-3-yl)-amide], the half-maximal effective concentration (EC50) worked out at 830 nM and the Emax is 109%.

For the compound `CCN(C)c1nc2cc(F)ccc2c(=O)n1NC(=O)[C@@H]1C[C@@H]1c1ccc(Cl)cc1` (relative stereo) [Compound 2.4, cis-2-(4-Chloro-phenyl)-cyclopropanecarboxylic acid [2-(ethyl-methyl-amino)-7-fluoro-4-oxo-4H-quinazolin-3-yl]-amide], the half-maximal effective concentration (EC50) turned out to be 940 nM and the Emax was determined as 114%.

Turning to `CC(C)N(C)c1nc2cc(F)ccc2c(=O)n1NC(=O)[C@@H]1C[C@@H]1c1ccc(Cl)cc1` (relative stereo) [Compound 2.5, cis-2-(4-Chloro-phenyl)-cyclopropanecarboxylic acid [7-fluoro-2-(isopropyl-methyl-amino)-4-oxo-4H-quinazolin-3-yl]-amide], the midpoint of the response, the EC50, lay at 930 nM and the Emax was 114%.

For the compound `CCN(C)c1nc2cc(F)cc(F)c2c(=O)n1NC(=O)[C@@H]1C[C@@H]1c1ccc(Cl)cc1` (relative stereo) [Compound 2.6, cis-2-(4-Chloro-phenyl)-cyclopropanecarboxylic acid [2-(ethyl-methyl-amino)-5,7-difluoro-4-oxo-4H-quina-zolin-3-yl]-amide], the EC50 was 500 nM and the Emax was found to be 110%.

For `O=C(Nn1c(N2CCCC2)nc2c(F)cccc2c1=O)[C@@H]1C[C@@H]1c1ccc(Cl)cc1` (relative stereo) [Compound 2.7, cis-2-(4-Chloro-phenyl)-cyclopropanecarboxylic acid (8-fluoro-4-oxo-2-pyrrolidin-1-yl-4H-quinazolin-3-yl)-amide], the EC50 was found to be 270 nM and the Emax stood at 101%.

As to `O=C(CCc1cccc(F)c1)Nn1c(N2CCCC2)nc2cc(F)ccc2c1=O` [Compound 1.1, N-(7-Fluoro-4-oxo-2-pyrrolidin-1-yl-4H-quinazolin-3-yl)-3-(3-fluoro-phenvl)-propion-amide], the EC50 was found to be 260 nM and the Emax came out at 154%.

Turning to `COCCN(C)c1nc2ccccc2c(=O)n1NC(=O)CCc1cccc(F)c1` [Compound 1.2, 3-(3-Fluoro-phenyl)-N-{2-[(2-methoxy-ethyl)-methyl-amino]-4-oxo-4H-quinazolin-3-yl}-propionamide], the EC50 was found to be 9500 nM and the Emax was 130%.

Regarding `CN(Cc1ccccc1)c1nc2ccccc2c(=O)n1NC(=O)CCc1cccc(F)c1` [Compound 1.3, N-[2-(Benzyl-methyl-amino)-4-oxo-4H-quinazolin-3-yl]-3-(3-fluoro-phenyl)-propion-amide], the concentration for a half-maximal effect (EC50) turned out to be 1600 nM and the Emax came to 118%.

In the case of `CN(Cc1ccccc1)c1nc2ccccc2c(=O)n1NC(=O)CCc1cc(F)cc(F)c1` [Compound 1.4, N-[2-(Benzyl-methyl-amino)-4-oxo-4H-quinazolin-3-yl]-3-(3,5-difluoro-phenyl)-propionamide], the half-maximal effective concentration (EC50) came out at 3900 nM and the Emax amounted to 40%.

Take `O=C(CCc1cccc(F)c1)Nn1c(N2CCCC2)nc2ccccc2c1=O` [Compound 1.5, 3-(3-Fluoro-phenyl)-N-(4-oxo-2-pyrrolidin-1-yl-4H-quinazolin-3-yl)-propion-amide]: a half-maximal effect (EC50) was put at 410 nM and the Emax stood at 148%.

Turning to `O=C(CCc1ccccc1)Nn1c(N2CCCC2)nc2ccccc2c1=O` [Compound 1.6, N-(4-Oxo-2-pyrrolidin-1-yl-4H-quinazolin-3-yl)-3-phenyl-propionamide], the EC50 was found to be 660 nM and the Emax worked out at 96%.

For the compound `CN(C)c1nc2cc(F)ccc2c(=O)n1NC(=O)CCc1cccc(F)c1` [Compound 1.7, N-(2-Dimethylamino-7-fluoro-4-oxo-4H-quinazolin-3-yl)-3-(3-fluoro-phenyl)-propionamide], the EC50 stood at 2500 nM and the Emax came to 112%.

As to `O=C(CSc1ccccc1)Nn1c(N2CCCC2)nc2ccccc2c1=O` [Compound 1.8, N-(4-Oxo-2-pyrrolidin-1-yl-4H-quinazolin-3-yl)-2-phenylsulfanyl-acetamide], the EC50 was 3300 nM and the Emax came out at 103%.

For `O=C(COc1ccccc1)Nn1c(N2CCCC2)nc2ccccc2c1=O` [Compound 1.9, N-(4-Oxo-2-pyrrolidin-1-yl-4H-quinazolin-3-yl)-2-phenoxy-acetamide], a half-maximal effect (EC50) was put at 12000 nM and the Emax was 75%.

On to `O=C(CCc1cccc(F)c1)Nn1c(N2CCCC2)nc2cccc(F)c2c1=O` [Compound 1.10, N-(5-Fluoro-4-oxo-2-pyrro-lidin-1-yl-4H-quinazolin-3-yl)-3-(3-fluoro-phenyl)-propionamide], for which a half-maximal response (EC50) required 340 nM and the Emax turned out to be 100%.

For the compound `O=C(CSc1ccc(F)cc1)Nn1c(N2CCCC2)nc2ccccc2c1=O` [Compound 1.11, 2-(4-Fluoro-phenylsulfanyl)-N-(4-oxo-2-pyrrolidin-1-yl-4H-quinazolin-3-yl)-acetamide], the EC50 was 2200 nM and the Emax was determined as 106%.

As for `O=C(CCc1cccc(F)c1)Nn1c(N2CCCC2)nc2cc(F)cc(F)c2c1=O` [Compound 1.12, N-(5,7-Difluoro-4-oxo-2-pyrrolidin-1-yl-4H-quina-zolin-3-yl)-3-(3-fluoro-phenyl)-propionamide], a half-maximal effect (EC50) was put at 32 nM and the Emax stood at 122%.

With `CC(C)(C)c1ccc(SCC(=O)Nn2c(N3CCCC3)nc3ccccc3c2=O)cc1` [Compound 1.13, 2-(4-tert-Butyl-phenyl-sulfanyl)-N-(4-oxo-2-pyrro-lidin-1-yl-4H-quinazolin-3-yl)-acetamide], the EC50 turned out to be 2100 nM and the Emax turned out to be 41%.

On to `CC(C)N(C)c1nc2cc(F)cc(F)c2c(=O)n1NC(=O)CCc1cccc(F)c1` [Compound 1.14, N-[5,7-Difluoro-2-(isopropyl-methyl-amino)-4-oxo-4H-quinazolin-3-yl]-3-(3-fluoro-phenyl)-propionamide], for which the EC50 worked out at 450 nM and the Emax amounted to 109%.

For `O=C(CCc1cc(F)cc(F)c1)Nn1c(N2CCCC2)nc2cc(F)cc(F)c2c1=O` [Compound 1.15, N-(5,7-Difluoro-4-oxo-2-pyrrolidin-1-yl-4H-quina-zolin-3-yl)-3-(3,5-difluoro-phenyl)-propionamide], the midpoint of the response, the EC50, lay at 18 nM and the Emax came to 112%.

Take `C[C@@H](CC(=O)Nn1c(N2CCCC2)nc2cc(F)cc(F)c2c1=O)c1ccccc1` [Compound 1.16, (S)-N-(5,7-Difluoro-4-oxo-2-pyrrolidin-1-yl-4H-quina-zolin-3-yl)-3-phenyl-butyr-amide]: the EC50 stood at 2.8 nM and the Emax came to 68%.

The values are drawn from patent publication US20110269783A1, “NOVEL 2,3-DIAMINO-QUINAZOLINONE DERIVATIVES AND THEIR MEDICAL USE” (NEUROSEARCH A/S, priority 2008, published 2011).
